Data as given in patent US20260295053A1, “COMPOUNDS FOR DEGRADATION AND INHIBITION OF KRAS (G12D) PROTEIN” (Shenzhen Ionova Life Science Co., Ltd., priority 2023, published 2026).

target: T1, KRAS (G12D) (Homo sapiens, UniProt P01116, G12D); assay: KRAS (G12D) cellular degradation assay in AsPC-1 cells; assay type: cell-based; details: 24 hours, antibody fluorescence (Odyssey CLX), DC50 half-maximal degradation concentration
T1 construct: in-cell western with KRAS G12D antibody after 24 h
Description: ASPC-1 and PK-59 cellular assays ASPC-1 (ATCC cat. CRL-1682) and PK-59 (Nanjing Cobioer, Cat. No. CBP61184) were used in KRAS cellular degradation, pERK inhibition and proliferation assays. The two cell lines were maintained following vendor's instructions. For monitoring KRAS (G12D) cellular degradation and pERK biomarker inhibition, cells were seeded into a 96-well plate with 22,000 and 16,000 cells/well for assays in ASPC-1 and PK-59, respectively. Cells were incubated at 37° C. with 5% CO2 and cell density was monitored until ^~90% confluency was reached. Compounds were serially diluted at a 1:3 ratio and dispensed into each well at final concentrations ranging from […] to 1.5 nM. After incubation for 24 hours, the culture media were removed and the cells were subjected to fixation, permeabilization and blocking (Intercept blocking buffer, Li-cor). For KRAS (G12D) degradation, the cells were treated with primary antibody (KRAS G12D antibody, Cell Signaling Technologies, Cat. No. CST14429) and for β-actin (β-actin mAb, Beyotime, Cat. No. AF-5001), and followed by secondary antibodies, Anti-rabbit IgG (H+L) (DyLight™ 800 4×PEG Conjugate) or IRDye® 680RD Goat anti-Mouse IgG. For pERK inhibition assay, cells were treated with primary antibodies for pERK (Phospho-p44/42 MAPK (Erk1/2) (Thr202/Tyr204) (D13.14.4E) XP® Rabbit mAb, Cell Signaling Technologies, Cat. No. CST-4370) and β-actin (β-actin mAb, Beyotime, Cat. No. AF-5001), and followed by secondary antibodies, Anti-rabbit IgG (H+L) (DyLight™ 800 4×PEG Conjugate) or IRDye® 680RD Goat anti-Mouse IgG. Fluorescence signals were read on Odyssey CLX instrument. For cell proliferation assays, cells were seeded into a 96-well plate at 3,500 and 800 cells/well for assays in ASPC-1 and PK-59, respectively. Cells were incubated at 37° C. with 5% CO2 for overnight. Compounds were serially diluted at a 1:3 ratio and dispensed into each well at final concentrations ranging from […] to 1.5 nM. After incubation for 6 days, cell viability reagent (CellTiter Glo, Promega, Cat. No. G7573) was added to each well and luminescence was recorded on Molecular Devices Spectramax iD3 instrument. IC50, half-maximal inhibitory concentration for pERK inhibition or cell proliferation, and DC50, half-maximal degradation concentration in KRAS (G12D) cellular degradation were determined by fitting the corresponding dose response curves using GraphPad Prism software.
Wherein “A” means the value <10 nM, “B” means 10 nM<the value <100 nM, “C” means 100 nM<the value <1000 nM, and “D” means the value >1000 nM, in which, the value means the value of DC50 or IC50. NT means not tested.

T1 sequence (P01116 1-188 isoform P01116-2 G12D): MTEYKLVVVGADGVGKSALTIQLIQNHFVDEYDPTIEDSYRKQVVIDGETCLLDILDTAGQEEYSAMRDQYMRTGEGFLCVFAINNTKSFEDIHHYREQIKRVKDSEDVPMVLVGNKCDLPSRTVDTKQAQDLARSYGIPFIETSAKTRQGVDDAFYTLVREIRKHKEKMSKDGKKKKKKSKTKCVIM

DC50, 10 to 100 nM:
CO[C@@H](C)COc1nc(N2C[C@@H]3C[C@H]2CN3)c2cc(C3CC3)c(-c3c(C)c(F)cc4[nH]ncc34)c(OCc3ccc(-c4cn([C@H](C(=O)N5C[C@H](O)C[C@H]5C(=O)N[C@H](C#Cc5cccc6c5ncn6C)CO)C(C)C)nn4)cc3)c2n1 [Example 140, (2S,4R)-1-((2S)-2-(4-(4-(((4-((1S,4S)-2,5-diazabicyclo[2.2.1]heptan-2-yl)-6-cyclopropyl-7-(6-fluoro-5-methyl-1H-indazol-4-yl)-2-((S)-2-methoxypropoxy)quinazolin-8-yl)oxy)methyl)phenyl)-1H-1,2,3-triazol-1-yl)-3-methylbutanoyl)-4-hydroxy-N—((R)-1-hydroxy-4-(1-methyl-1H-benzo[d]imidazol-4-yl)but-3-yn-2-yl)pyrrolidine-2-carboxamide]
CO[C@@H](C)COc1nc(N2C[C@@H]3C[C@H]2CN3)c2cc(C3CC3)c(-c3c(C)c(F)cc4[nH]ncc34)c(OCc3ccc(-c4cn([C@H](C(=O)N5C[C@H](O)C[C@H]5C(=O)N[C@H](C#Cc5cc(F)cc(F)c5)CO)C(C)C)nn4)cc3)c2n1 [Example 141, (2S,4R)-1-((2S)-2-(4-(4-(((4-((1S,4S)-2,5-diazabicyclo[2.2.1]heptan-2-yl)-6-cyclopropyl-7-(6-fluoro-5-methyl-1H-indazol-4-yl)-2-((S)-2-methoxypropoxy)quinazolin-8-yl)oxy)methyl)phenyl)-1H-1,2,3-triazol-1-yl)-3-methylbutanoyl)-N—((R)-4-(3,5-difluorophenyl)-1-hydroxybut-3-yn-2-yl)-4-hydroxypyrrolidine-2-carboxamide]
CCn1nccc1-c1ccc([C@@H](NC(=O)[C@@H]2C[C@@H](O)CN2C(=O)[C@H](C(C)C)n2cc(-c3ccc(COc4c(-c5c(C)c(F)c(F)c6[nH]ncc56)c(C5CC5)cc5c(N(C)[C@H]6CCNC6)nc(OC[C@H](C)OC)nc45)cc3)nn2)[C@H](C)O)cc1 [Example 146, (2S,4R)-1-((2S)-2-(4-(4-(((6-cyclopropyl-7-(6,7-difluoro-5-methyl-1H-indazol-4-yl)-2-((S)-2-methoxypropoxy)-4-(methyl((S)-pyrrolidin-3-yl)amino)quinazolin-8-yl)oxy)methyl)phenyl)-1H-1,2,3-triazol-1-yl)-3-methylbutanoyl)-N-((1R,2S)-1-(4-(1-ethyl-1H-pyrazol-5-yl)phenyl)-2-hydroxypropyl)-4-hydroxypyrrolidine-2-carboxamide]
CCn1ncc2c(C#C[C@H](CO)NC(=O)[C@@H]3C[C@@H](O)CN3C(=O)[C@H](C(C)C)n3cc(-c4ccc(COc5c(-c6c(C)c(F)cc7[nH]ncc67)c(C6CC6)cc6c(N7C[C@@H]8C[C@H]7CN8)nc(O[C@H]7C[C@@H](OC)C7)nc56)cc4)nn3)cccc21 [Example 163, (2S,4R)-1-((2S)-2-(4-(4-(((4-((1S,4S)-2,5-diazabicyclo[2.2.1]heptan-2-yl)-6-cyclopropyl-2-((1r,3R)-3-methoxycyclobutoxy)-7-(6-fluoro-5-methyl-1H-indazol-4-yl)quinazolin-8-yl)oxy)methyl)phenyl)-1H-1,2,3-triazol-1-yl)-3-methylbutanoyl)-N—((R)-4-(1-ethyl-1H-indazol-4-yl)-1-hydroxybut-3-yn-2-yl)-4-hydroxypyrrolidine-2-carboxamide]
CCn1cc2cccc(C#C[C@H](CO)NC(=O)[C@@H]3C[C@@H](O)CN3C(=O)[C@H](C(C)C)n3cc(-c4ccc(COc5c(-c6c(C)c(F)cc7[nH]ncc67)c(C6CC6)cc6c(N7C[C@@H]8C[C@H]7CN8)nc(O[C@H]7C[C@H](OC)C7)nc56)cc4)nn3)c2n1 [Example 168, (2S,4R)-1-((2S)-2-(4-(4-(((4-((1S,4S)-2,5-diazabicyclo[2.2.1]heptan-2-yl)-6-cyclopropyl-7-(6-fluoro-5-methyl-1H-indazol-4-yl)-2-((1r,3S)-3-methoxycyclobutoxy)quinazolin-8-yl)oxy)methyl)phenyl)-1H-1,2,3-triazol-1-yl)-3-methylbutanoyl)-N—((R)-4-(2-ethyl-2H-indazol-7-yl)-1-hydroxybut-3-yn-2-yl)-4-hydroxypyrrolidine-2-carboxamide]
CCn1ncc2cccc(C#C[C@H](CO)NC(=O)[C@@H]3C[C@@H](O)CN3C(=O)[C@H](C(C)C)n3cc(-c4ccc(COc5c(-c6c(C)c(F)cc7[nH]ncc67)c(C6CC6)cc6c(N7C[C@@H]8C[C@H]7CN8)nc(O[C@H]7C[C@H](OC)C7)nc56)cc4)nn3)c21 [Example 172, (2S,4R)-1-((2S)-2-(4-(4-(((4-((1S,4S)-2,5-diazabicyclo[2.2.1]heptan-2-yl)-6-cyclopropyl-7-(6-fluoro-5-methyl-1H-indazol-4-yl)-2-((1r,3S)-3-methoxycyclobutoxy)quinazolin-8-yl)oxy)methyl)phenyl)-1H-1,2,3-triazol-1-yl)-3-methylbutanoyl)-N—((R)-4-(1-ethyl-1H-indazol-7-yl)-1-hydroxybut-3-yn-2-yl)-4-hydroxypyrrolidine-2-carboxamide]
CCn1nccc1-c1ccc([C@H](CO)NC(=O)[C@@H]2C[C@@H](O)CN2C(=O)[C@H](C(C)C)n2cc(-c3ccc(COc4c(-c5c(C)c(F)cc6[nH]ncc56)c(C5CC5)cc5c(N6CCC(C#N)CC6)nc(OC[C@H](C)OC)nc45)cc3)nn2)cc1 [Example 174, (2S,4R)-1-((2S)-2-(4-(4-(((4-(4-cyanopiperidin-1-yl)-6-cyclopropyl-7-(6-fluoro-5-methyl-1H-indazol-4-yl)-2-((S)-2-methoxypropoxy)quinazolin-8-yl)oxy)methyl)phenyl)-1H-1,2,3-triazol-1-yl)-3-methylbutanoyl)-N—((R)-1-(4-(1-ethyl-1H-pyrazol-5-yl)phenyl)-2-hydroxyethyl)-4-hydroxypyrrolidine-2-carboxamide]
CO[C@@H](C)COc1nc(N(C)[C@H]2CCNC2)c2cc(C3CCC3)c(-c3c(C)c(F)c(F)c4[nH]ncc34)c(OCc3ccc(-c4cn([C@H](C(=O)N5C[C@H](O)C[C@H]5C(=O)N[C@H](c5ccc(-c6scnc6C)cc5)[C@@H](C)O)C(C)C)nn4)cc3)c2n1 [Example 175, (2S,4R)-1-((2S)-2-(4-(4-(((6-cyclobutyl-7-(6,7-difluoro-5-methyl-1H-indazol-4-yl)-2-((S)-2-methoxypropoxy)-4-(methyl((S)-pyrrolidin-3-yl)amino)quinazolin-8-yl)oxy)methyl)phenyl)-1H-1,2,3-triazol-1-yl)-3-methylbutanoyl)-4-hydroxy-N-((1R,2R)-2-hydroxy-1-(4-(4-methylthiazol-5-yl)phenyl)propyl)pyrrolidine-2-carboxamide]
CCn1nccc1-c1ccc([C@H](CO)NC(=O)[C@@H]2C[C@@H](O)CN2C(=O)[C@H](C(C)C)n2cc(-c3ccc(COc4c(-c5c(C)c(F)cc6[nH]ncc56)c(C5CC5)cc5c(N6CCCC(C#N)CC6)nc(OC[C@H](C)OC)nc45)cc3)nn2)cc1 (stereo partly drawn) [Example 182, (2S,4R)-1-((2S)-2-(4-(4-(((4-(4-cyanoazepan-1-yl)-6-cyclopropyl-7-(6-fluoro-5-methyl-1H-indazol-4-yl)-2-((S)-2-methoxypropoxy)quinazolin-8-yl)oxy)methyl)phenyl)-1H-1,2,3-triazol-1-yl)-3-methylbutanoyl)-N—((R)-1-(4-(1-ethyl-1H-pyrazol-5-yl)phenyl)-2-hydroxyethyl)-4-hydroxypyrrolidine-2-carboxamide]
CCn1nccc1-c1ccc([C@H](CO)NC(=O)[C@@H]2C[C@@H](O)CN2C(=O)[C@H](C(C)C)n2cc(-c3ccc(COc4c(-c5c(C)c(F)cc6[nH]ncc56)c(C5CC5)cc5c(N6CCNCC[C@@H]6C)nc(OC[C@H](C)OC)nc45)cc3)nn2)cc1 [Example 183, (2S,4R)-1-((2S)-2-(4-(4-(((6-cyclopropyl-7-(6-fluoro-5-methyl-1H-indazol-4-yl)-2-((S)-2-methoxypropoxy)-4-((S)-7-methyl-1,4-diazepan-1-yl)quinazolin-8-yl)oxy)methyl)phenyl)-1H-1,2,3-triazol-1-yl)-3-methylbutanoyl)-N—((R)-1-(4-(1-ethyl-1H-pyrazol-5-yl)phenyl)-2-hydroxyethyl)-4-hydroxypyrrolidine-2-carboxamide]
